Experiments:
[1] = tested on: MDA-MB-468, MDA-MB-231, MDA-MB-436 and CAL51 triple negative breast cancer models; test: In vivo anti-tumor activity of compound 8 in triple negative breast cancer models; design: species or system mice; conditions: i.p. 37 and 75 mpk, 21 continuous days; all four models
Method: Shown are representative examples of triple negative breast cancer models with high 4EBP1 marker expression levels. Tumor growth was measured in MDA-MB-468 (ATCC HTB-132) (A), MDA-MB-231 (ATCC HTB-26) (B), MDA-MB-436 (ATCC HTB-130) (C) and CAL51 (DSMZ-ACC-302) (D) as indicated. compound 8 was dosed i.p at 37 and 75 mpk for 21 continuous days and tumor size measured every three days. Vehicle (black line), compound 8 dosed daily at 37 mpk (light grey) and 75 mpk (dark grey). X-axis represents days; y-axis represents the tumor volume (mm^3).

[2] = tested on: human cell line NCI-H526 xenograft; test: N-Myc-driven mouse xenograft model, NCI-H526, compound 210 oral; type: in vivo
[3] = tested on: DOHH2 lymphoma cell line derived xenograft; test: DOHH2 lymphoma CDX efficacy study; type: in vivo, immunodeficient mice; conditions: oral daily 3 mg/kg and 10 mg/kg
Method: Additionally, cell line derived xenograft (CDX) models were produced for lymphoma cell line (DOHH2) in immunodeficient mice. Oral dosing of Compound 345 was performed daily at doses of 3 mg/kg and 10 mg/kg as well as the CHOP combination (a well-known lymphoma treatment regimen) and a no-drug vehicle control. Tumor volumes were measured (mm^3) at regular intervals over the course of up to 30 days depending on the animal.
In vivo efficacy study: NCI-H1155, MM1 S, WSU-DLCL2, DOHH-2 cells were maintained in vitro in individual medium and conditions as recommended by the providers and incubated at 37° C. in an atmosphere of 5% CO2 in air. 0.5 million (NCI-H1155), 10 million (MM1S) or 5 million (WSU-DLCL2 and DOHH-2) cells were resuspended in typically 0.1-0.2 mL of PBS with Matrigel (50:50) and were inoculated into 6-8 weeks old BALB/c nude female (NCI-H115, WSU-DLCL2), NOD/SCID (MM1S) or CB-17SCID (DOHH-2) mice and allowed to grow to 150-200 mm3 in size. […] Tumor volumes were measured at least twice weekly during the treatment period using a caliper and the volume was expressed in mm3 using the formula: V=0.5 a×b2 where a and b were the long and short diameters of the tumor, respectively. […] Data are expressed as the mean±SEM. All data was analyzed using GraphPad Prism 8.1.2 (GraphPad).

[4] = tested on: MM1S cell line; test: Caspase 3/7 apoptosis Glo assay in MM1S; type: cell-based; conditions: 48 hr treatment
[5] = tested on: NSCLC cell lines; test: Viability assay, 72 hr CellTiter Glo, NSCLC cell line panel (Compound 345); type: cell-based; conditions: panel of NSCLC cell lines
Method: EC50 scores for Compound 345 were measured in a panel of NSCLC cell lines. Each cell line was scored for NSCLC biomarkers and EC50 values were plotted against NSCLC biomarker score. Results of this experiment are shown in the scatter plot of FIG. 11A. High N-Myc expressing cell lines were enriched in the lower right quadrant of the scatterplot, indicating high NSCLC biomarker scores and high sensitivity to Compound 345.
Viability assay: Compound 345 was tested in a panel of 156 lung cancer cell lines (including non small cell lung cancer (NSCLC) and small cell lung cancer (SCLC) cell lines and 46 lymphoma cell lines using a 72 hr CellTiter Glo assay format. Cells were sub-cultured as recommended by the providers (ATCC, DSMZ) and incubated at 37° C., 5% CO2. All cells were authenticated and confirmed by Short Tandem Repeat (STR) profiling. Briefly, each lung cancer cell line was preferentially seeded in 384-well plates (100 μL/well) at a density previously determined to be in log growth phase 72 hour post-seeding (typically in the 400-2400 cells/well range). […] Cell viability was assessed using the CellTiter-Glo® 2.0 Assay as recommended by the Manufacturer (Promega, Cat. No. G7558, Lot. No. 0000385738) and measurements performed on the EnSpire multimode plate reader (Perkin Elmer). […]

[6] = tested on: L-Myc; test: L-Myc levels in SCLC lines after Compound 345 (western blot); type: cell-based; conditions: SCLC lines NCI-H1836 and NCI-H1876
Description: NCI-H1836 and NCI-H1876 were taken as two representatives of L-Myc high SCLC. Western blot analysis probing for GSPT1 and L-Myc following treatment with Compound 345 as indicated. GAPDH was used as a loading control.

With `Cc1ccc(NC(=O)NCc2ccc3c(c2)C(=O)N(C2CCC(=O)NC2=O)C3)cc1Cl` (stereo not drawn) [Compound 8] the “anti-tumor activity (tumor volume)” value [1] was “robust and dose-dependent anti-tumor activity, including regressions”.

In the case of `Cc1ccc(NC(=O)OCc2ccc3c(c2)C(=O)N(C2CCC(=O)NC2=O)C3)cc1Cl` (stereo not drawn) [Compound 210], the tumor size ([2]; 3 mg/kg once daily) is reported as “tumor size decreased and remained so until the end of the study”, the tumor size ([2]; 6 mg/kg, five days on and nine days off) is reported as “tumor size decreased and remained so until the end of the study” and the body weight ([2]; oral administration) is reported as “no body weight loss observed”. For the same molecule, the tumor growth ([2]; oral administration) was “tumor growth inhibition”.

`O=C1CCC(N2Cc3ccc(COC(=O)Nc4cc(OC(F)(F)F)ccc4F)cc3C2=O)C(=O)N1` (stereo not drawn) [Compound 345, (2-(2,6-dioxopiperidin-3-yl)-3-oxoisoindolin-5-yl)methyl(2-fluoro-5-(trifluoromethoxy)phenyl)carbamate] was tested, and the tumor volume [3] was “anti-tumor activity”, the “apoptosis (Caspase 3/7)” value [4] was “Apoptosis induction” and the “cell viability in Myc-driven and non-Myc-driven NSCLC” value [5] was “cell viability was significantly reduced in only Myc-driven NSCLC”. For the same molecule, the “L-Myc level, timecourse” value [6] was “downregulation of L-Myc”.

From patent publication US20240261274A1, “TREATMENT OF MYC-DRIVEN CANCERS WITH GSPT1 DEGRADERS” (MONTE ROSA THERAPEUTICS, INC., priority 2021, published 2024)
